Among the test systems are NCI-H23 lung; SF-539 CNS; HCC-2998 colon; OVCAR-4 ovarian; T-47D breast; ACHN renal; HCT-116 colon; SNB-75 CNS; DU-145 prostate; SK-MEL-2 melanoma.
Assay in all cases: NCI anticancer screen, dose series, 48 h

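Dose response: 5 concentrations. Exposure: 48 h. Format: 96-well plates. Endpoint: linear interpolation; highest concentration if not reached. At the GI50, growth is halved. TGI is the concentration that stops growth completely.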 Where only a bound is given, the exact number is not on record here.

As to `C/C(=N\NC(=O)c1ccncc1)c1ccc(O)cc1O`, the GI50 with NCI-H23 lung was 11.4 µM; with SF-539 CNS it was 5.67 µM; in the assay on HCC-2998 colon, 3.59 µM; in the assay with OVCAR-4 ovarian, 2.68 µM; in the assay on T-47D breast it was 11.4 µM; in the assay with ACHN renal, 4480 nM. Further, the GI50 with HCT-116 colon is 3.16 µM; in the assay with SNB-75 CNS, 14.1 µM; with DU-145 prostate, 3.63 µM; in the assay with SK-MEL-2 melanoma, over 100 µM. The TGI in the assay on NCI-H23 lung, in the assay with SF-539 CNS, in the assay on HCC-2998 colon, in the assay on OVCAR-4 ovarian, with T-47D breast and in the assay with ACHN renal was over 100 µM in each case. In addition, the TGI is over 100 µM in the assay on HCT-116 colon, 88.2 µM in the assay on SNB-75 CNS, over 100 µM in the assay with DU-145 prostate and over 100 µM with SK-MEL-2 melanoma.

With `CCCN1CCN(c2ccc3nc(-c4ccc5nc(-c6ccc(OCC)c(OCC)c6)[nH]c5c4)[nH]c3c2)CC1`, the GI50 in the assay on NCI-H23 lung is 0.251 µM; in the assay with SF-539 CNS, 0.724 µM; in the assay on HCC-2998 colon it was 0.533 µM; with OVCAR-4 ovarian it was 0.449 µM; in the assay with T-47D breast it was 0.428 µM; in the assay on ACHN renal it was 1000 nM. For the same compound, the GI50 in the assay on HCT-116 colon was 0.218 µM; in the assay on SNB-75 CNS it was 0.425 µM; in the assay on DU-145 prostate it was 0.436 µM; with SK-MEL-2 melanoma it was 0.508 µM. Besides, the TGI in the assay on NCI-H23 lung was 0.765 µM; with SF-539 CNS it was 2.05 µM; in the assay on HCC-2998 colon it was 1.16 µM; in the assay on OVCAR-4 ovarian it was 1.84 µM; in the assay with T-47D breast, 5.66 µM; in the assay on ACHN renal, 2.6 µM. Further, the TGI with HCT-116 colon came out at 1.19 µM; in the assay on SNB-75 CNS, 1.9 µM; with DU-145 prostate, 1.75 µM; with SK-MEL-2 melanoma, 2.01 µM.

Take `CC[C@]12CCCN3CC[C@]4(C(=C(C(=O)OC)C1)Nc1ccccc14)[C@@H]32`: the GI50 in the assay with NCI-H23 lung was 17.1 µM; with SF-539 CNS, 18.2 µM; with HCC-2998 colon, 14.6 µM; in the assay with OVCAR-4 ovarian, 15.4 µM; in the assay with T-47D breast, 16.6 µM; with ACHN renal, 15300 nM. In addition, the GI50 in the assay with HCT-116 colon was 14.6 µM; with SNB-75 CNS it was 13.6 µM; in the assay with DU-145 prostate, 16.8 µM; with SK-MEL-2 melanoma, 16.8 µM. In addition, the TGI in the assay on NCI-H23 lung was determined as 43.8 µM; in the assay with SF-539 CNS, 37.9 µM; in the assay with HCC-2998 colon, 29 µM; in the assay on OVCAR-4 ovarian it was 54.8 µM; with T-47D breast it was 80.5 µM; in the assay with ACHN renal, 28.6 µM. For the same compound, the TGI was 33 µM in the assay with HCT-116 colon, 61.9 µM in the assay on SNB-75 CNS, 35.2 µM in the assay with DU-145 prostate and 39.2 µM with SK-MEL-2 melanoma.

Regarding `CC/C=C\C/C=C\C[C@H]1C/C=C2/C(=O)C=C[C@H]2C/C=C\CCC(=O)O1`, the GI50 in the assay on NCI-H23 lung is 3.03 µM; with SF-539 CNS, 4.44 µM; in the assay on HCC-2998 colon, 2.77 µM; in the assay with OVCAR-4 ovarian it was 5.22 µM; in the assay on T-47D breast, 4.62 µM; in the assay on ACHN renal, 2600 nM. In addition, the GI50 in the assay on HCT-116 colon was 3.63 µM; in the assay on SNB-75 CNS, 10.1 µM; in the assay with DU-145 prostate it was 4.33 µM; in the assay with SK-MEL-2 melanoma, 3.45 µM. The TGI with NCI-H23 lung was 8.31 µM; in the assay with SF-539 CNS, over 14.3 µM; in the assay on HCC-2998 colon, 5.37 µM; in the assay with OVCAR-4 ovarian, over 14.3 µM; in the assay with T-47D breast, over 14.3 µM; in the assay with ACHN renal, 5.2 µM. For the same compound, the TGI with HCT-116 colon was over 14.3 µM; in the assay with SNB-75 CNS it was over 14.3 µM; with DU-145 prostate, over 14.3 µM; in the assay with SK-MEL-2 melanoma it was 9.94 µM.

`CC(C)[C@@H]1CC[C@@H]2[C@@H]1[C@H](OC(=O)/C=C/c1ccccc1)[C@]1(C(C)C)C[C@@H](OC(=O)CO)[C@@]2(C)O1`: the GI50 with NCI-H23 lung is 6.88 µM; with SF-539 CNS it was 5.25 µM; in the assay with HCC-2998 colon it was 6.35 µM; with OVCAR-4 ovarian, 5.15 µM; in the assay on T-47D breast, 5.27 µM; in the assay on ACHN renal, 8.24 nM. Moreover, the GI50 with HCT-116 colon was 5.79 µM; in the assay on SNB-75 CNS, 3.46 µM; in the assay on DU-145 prostate it was 7.02 µM; in the assay with SK-MEL-2 melanoma, 7.71 µM. The TGI with NCI-H23 lung amounted to 14.1 µM; in the assay with SF-539 CNS, 10.2 µM; in the assay on HCC-2998 colon it was 11.7 µM; in the assay on OVCAR-4 ovarian, 9.93 µM; with T-47D breast, 12.5 µM; in the assay with ACHN renal it was 4.25 µM. The TGI with HCT-116 colon came to 11.3 µM; in the assay on SNB-75 CNS it was 8.5 µM; with DU-145 prostate it was 13.4 µM; with SK-MEL-2 melanoma, 17.6 µM.

As for `O=C1c2ccccc2C(=O)c2c1ccc1c2OCO1`, the TGI in the assay with NCI-H23 lung, in the assay with SF-539 CNS, in the assay with HCC-2998 colon, in the assay with OVCAR-4 ovarian, in the assay on T-47D breast and in the assay with HCT-116 colon was over 100 µM each time. Moreover, the TGI in the assay on SNB-75 CNS, in the assay with DU-145 prostate and in the assay with SK-MEL-2 melanoma was over 100 µM in each case.

With `COc1cc2c3c(n(CCCCl)c(=O)c2cc1OC)-c1ccc(C#N)cc1C3=O`, the GI50 was 8.38 µM in the assay with NCI-H23 lung; 7.18 µM in the assay with SF-539 CNS; 4.49 µM in the assay with HCC-2998 colon; 88.7 µM in the assay on OVCAR-4 ovarian; over 100 µM with T-47D breast; 15.2 µM in the assay with HCT-116 colon. The GI50 in the assay with SNB-75 CNS was 4 µM; in the assay with DU-145 prostate, 10.7 µM; in the assay on SK-MEL-2 melanoma it was 4.93 µM. The TGI in the assay with NCI-H23 lung is 20.9 µM; in the assay with SF-539 CNS, 28.2 µM; in the assay on HCC-2998 colon, 25.9 µM; in the assay with OVCAR-4 ovarian, over 100 µM; in the assay with T-47D breast, over 100 µM; in the assay on HCT-116 colon, over 100 µM. The TGI in the assay with SNB-75 CNS is 15.8 µM; in the assay on DU-145 prostate, over 100 µM; in the assay on SK-MEL-2 melanoma, 24.5 µM.

Consider `CN1CCCCC1CCN1c2ccccc2Sc2ccc(S(C)=O)cc21` (stereo unspecified), for which the TGI in the assay with NCI-H23 lung, in the assay on SF-539 CNS, in the assay on OVCAR-4 ovarian, with T-47D breast, in the assay on ACHN renal and in the assay on HCT-116 colon was over 100 µM throughout. In addition, the TGI in the assay on SNB-75 CNS, in the assay on DU-145 prostate and in the assay on SK-MEL-2 melanoma was over 100 µM each time.

Values taken from PubChem BioAssay (NCI).
